From patent US20230016424A1, “HYBRID AMIDE DERIVATIVES OF AMPHOTERICIN B” (The Board of Trustees of the University of Illinois, priority 2019, published 2023)
≈ marks a conversion by molar mass, not a printed value. Where “and” joins values, the source holds several entries; their conditions need not be identical. Equal entries are not always repeated.

How the values were obtained:
[1] = molecular target: T1, CYP1A2 (Homo sapiens, UniProt P05177); assay: CYP Inhibition; format: in vitro ADME; settings: human liver microsome; for P450 1A2 % Inhibition: 10 um
T1 construct: from tissue; host or cells: human liver microsomes
T1 sequence (P05177 1-516): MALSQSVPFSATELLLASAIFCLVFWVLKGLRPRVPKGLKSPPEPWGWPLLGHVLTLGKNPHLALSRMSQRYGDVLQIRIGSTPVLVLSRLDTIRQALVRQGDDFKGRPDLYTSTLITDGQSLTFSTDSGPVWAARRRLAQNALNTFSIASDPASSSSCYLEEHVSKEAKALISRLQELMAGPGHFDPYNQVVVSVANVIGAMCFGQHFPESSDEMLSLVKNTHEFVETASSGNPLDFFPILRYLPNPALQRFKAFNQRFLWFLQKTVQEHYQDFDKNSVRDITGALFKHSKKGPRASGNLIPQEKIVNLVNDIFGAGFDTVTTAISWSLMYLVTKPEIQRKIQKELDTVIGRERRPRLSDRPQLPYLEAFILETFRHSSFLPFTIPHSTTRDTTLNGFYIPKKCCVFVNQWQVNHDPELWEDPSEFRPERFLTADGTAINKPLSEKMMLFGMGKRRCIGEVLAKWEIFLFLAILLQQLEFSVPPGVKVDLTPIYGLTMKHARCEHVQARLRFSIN
Protocol: (§1) The working solutions of the test compounds and the standard inhibitors were prepared in DMSO (100× final concentration). 20 ul of substrate solution (5 in 1 cocktail) was added to the wells followed by 2 ul test compound solution was added. 158 ul of human liver microsome (HLM) was added to all the wells of the incubated plate and warmed to 37° C. for 10 mins. 20 ul of NADPH cofactor solution was then added to all the wells of incubated plate and incubated at 37° C. for 10 mins. At the time point the reaction was quenched by adding 400 uL of cold stop solution. The samples were centrifuged at 4000 rpm for 20 mins to precipitate protein. 100 ul supernatant was diluted with 100 ul of ultra pure water and analyzed using LCMS.

[2] = test system: Candida albicans SN250; assay: Mouse model of invasive candidiasis (kidney CFU); settings: for Mouse candidiasis model: 5 mpk
[3] = molecular target: CYP2D6 (Homo sapiens, UniProt P10635); assay: CYP Inhibition; settings: for P450 2D6 % Inhibition: 10 um, human liver microsome
Protocol: as §1

[4] = molecular target: CYP2C9 (Homo sapiens, UniProt P11712); assay: CYP Inhibition; settings: for P450 2C9 % Inhibition: 10 um, human liver microsome
Protocol: as §1

[5] = molecular target: CYP3A4 (Homo sapiens, UniProt P08684); assay: CYP Inhibition; settings: for P450 3A4 % Inhibition: 10 um, human liver microsome
Protocol: as §1

[6] = test system: Coccidioides immitis; assay: microbe, parasite or virus in culture; format: cell-based
[7] = test system: Candida krusei; assay: MIC against yeasts; format: cell-based; settings: 2 isolates
[8] = test system: A. tubingensis; assay: MIC against moulds; format: cell-based; settings: 6 isolates
[9] = test system: A. fumigatus; assay: MIC against moulds; format: cell-based; settings: 5 isolates
[10] = test system: Blastomyces dermatitidis; assay: MIC against moulds; format: cell-based; settings: 5 isolates
[11] = Solubility in D5W; settings: for Solubility in D5W: 5% dextrose in water, room temperature; for Fold of Increase w.r.t. AmB (solubility): D5W
[12] = test system: A. thermomutatus; assay: MIC against moulds; format: cell-based; settings: for MIC A. thermomutatus: 6 isolates
[13] = test system: human erythrocytes; assay: MHC hemolysis assay; format: cell-based
Protocol: MHC (FIG. 21B): The protocol for the hemolysis assay was adapted from the report of Paquet and coworkers (Chem. Eur. J. 2008, 14, 2465-2481). Whole human blood (sodium heparin) was purchased from Bioreclamation LLC (Westbury, N.Y.) and stored at 4° C. and used within two days of receipt. To a 2.0 mL eppendorf tube, 1 mL of whole human blood was added and centrifuged at 10,000 g for 2 minutes. The supernatant was removed and the erythrocyte pellet was washed with 1 mL of sterile saline and centrifuged at 10,000 g for 2 minutes. The saline wash was repeated for a total of three washes. The erythrocyte pellet was suspended in 1 mL of RBC buffer (10 mM NaH2PO4, 150 mM NaCl, 1 mM MgCl2, pH 7.4) to form the erythrocyte stock suspension.
Compounds were prepared as >15 mM stock solutions in DMSO and serially diluted to the following concentrations with DMSO: 7689, 5126, 2563, 2050, 1538, 1025, 769, 513, 384, 256, 205, 154, 103, 77, 51, 26 μM. To a 0.2 mL PCR tube, 24 μL of RBC buffer and 1 μL of compound stock solution were added, which gave final concentrations of […]. Positive and negative controls were prepared by adding 1 μL of DMSO to MilliQ water or RBC buffer, respectively to 0.2 mL PCR tube. To each PCR tube, 0.63 μL of the erythrocyte stock suspension was added and mixed by inversion. The samples were incubated at 37° C. for 2 hours. The samples were mixed by inversion and centrifuged at 10,000 g for 2 minutes. 15 μL of the supernatant from each sample was added to a 384-well place. Absorbances were read at 540 nm using a Biotek H1 Synergy Hybrid Reader (Wanooski, Vt.). Experiments were performed in triplicate and the reported MHC represents an average of three experiments.

[14] = test system: Licht. Ramosa; assay: MIC against moulds; format: cell-based; settings: 6 isolates
[15] = test system: Claophialophora bantiana; assay: MIC against moulds; format: cell-based; settings: 6 isolates
[16] = test system: Different Yeasts; assay: Average MIC against different yeasts; format: cell-based; set-up: MICavg yeast (46 strains): unit not given beside the values; settings: for MIC: 46 isolates
[17] = test system: Cunninghamella sp.; assay: MIC against moulds; format: cell-based; settings: 6 isolates
[18] = test system: Licht. Corymbifera; assay: MIC against moulds; format: cell-based; settings: 6 isolates
[19] = test system: Scedosporium boydii; assay: MIC against rare moulds resistant to AmB; format: cell-based; settings: 6 isolates
[20] = test system: Candida auris; assay: MIC against yeasts; format: cell-based; settings: 10 isolates
[21] = test system: Rhodotorula sp.; assay: MIC against yeasts; format: cell-based; settings: 6 isolates
[22] = test system: Coccidioides posadasii; assay: microbe, parasite or virus in culture; format: cell-based
[23] = human, human liver microsomes, probe 5 in 1 substrate cocktail (substrates not named)
[24] = hemolysis, human erythrocytes, 37° C. 2 hours

CYP2D6, sequence (P10635 whole entry): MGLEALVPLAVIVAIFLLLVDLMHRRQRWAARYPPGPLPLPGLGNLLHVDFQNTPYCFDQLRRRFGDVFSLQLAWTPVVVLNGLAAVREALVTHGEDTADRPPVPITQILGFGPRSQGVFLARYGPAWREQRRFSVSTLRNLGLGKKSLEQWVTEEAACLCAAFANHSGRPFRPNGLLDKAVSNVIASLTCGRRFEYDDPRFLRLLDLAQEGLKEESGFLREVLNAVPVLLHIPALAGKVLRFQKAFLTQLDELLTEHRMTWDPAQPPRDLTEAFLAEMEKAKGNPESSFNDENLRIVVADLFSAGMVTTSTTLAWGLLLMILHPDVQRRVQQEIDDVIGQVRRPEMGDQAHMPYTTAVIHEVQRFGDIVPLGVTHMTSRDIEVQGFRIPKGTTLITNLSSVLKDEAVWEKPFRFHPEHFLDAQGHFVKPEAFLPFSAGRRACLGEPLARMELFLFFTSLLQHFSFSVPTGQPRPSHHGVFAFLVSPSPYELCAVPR
CYP2C9, sequence (P11712 whole entry): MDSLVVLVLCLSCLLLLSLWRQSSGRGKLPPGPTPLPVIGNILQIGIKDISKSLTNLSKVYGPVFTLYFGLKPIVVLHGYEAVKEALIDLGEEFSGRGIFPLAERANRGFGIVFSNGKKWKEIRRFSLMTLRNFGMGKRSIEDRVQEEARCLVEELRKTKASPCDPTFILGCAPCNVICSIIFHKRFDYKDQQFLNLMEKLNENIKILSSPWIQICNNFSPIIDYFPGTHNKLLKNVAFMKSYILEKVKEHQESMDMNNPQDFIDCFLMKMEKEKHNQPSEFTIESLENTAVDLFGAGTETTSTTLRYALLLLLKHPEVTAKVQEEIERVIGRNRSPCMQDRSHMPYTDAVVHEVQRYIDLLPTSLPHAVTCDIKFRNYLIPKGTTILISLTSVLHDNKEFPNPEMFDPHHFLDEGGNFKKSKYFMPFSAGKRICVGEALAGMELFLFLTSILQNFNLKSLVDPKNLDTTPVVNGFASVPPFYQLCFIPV
CYP3A4, sequence (P08684 whole entry): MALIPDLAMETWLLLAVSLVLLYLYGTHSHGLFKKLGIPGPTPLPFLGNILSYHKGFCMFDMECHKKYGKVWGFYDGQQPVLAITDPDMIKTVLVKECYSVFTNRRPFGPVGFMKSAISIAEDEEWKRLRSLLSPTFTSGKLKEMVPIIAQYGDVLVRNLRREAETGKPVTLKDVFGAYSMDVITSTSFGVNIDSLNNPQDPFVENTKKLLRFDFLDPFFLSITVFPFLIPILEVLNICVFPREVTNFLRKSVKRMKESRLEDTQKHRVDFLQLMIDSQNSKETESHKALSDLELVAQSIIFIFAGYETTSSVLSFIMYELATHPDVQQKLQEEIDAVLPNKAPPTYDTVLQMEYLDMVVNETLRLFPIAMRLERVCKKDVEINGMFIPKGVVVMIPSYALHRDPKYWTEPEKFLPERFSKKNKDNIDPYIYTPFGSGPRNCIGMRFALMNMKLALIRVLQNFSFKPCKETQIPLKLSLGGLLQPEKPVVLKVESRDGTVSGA

| SMILES | Mouse candidiasis model [2] | MHC [13, 24] [µM] | MHC ([13]; summary table, unit not given) | MIC [14] [µM] | MIC [15] [µM] | MICavg yeast (46 strains) [16] | MIC [16] [µM] | P450 1A2 % Inhibition [1] [%] | P450 2D6 % Inhibition [3] | P450 2C9 % Inhibition [4] [%] | P450 3A4 % Inhibition [5] [%] | MIC Coccidioides immitis [6] [µM] | MIC [7] [µM] | MIC [8] [µM] | MIC [9] [µM] | MIC [10] [µM] | Solubility in D5W [11] [µM] | Fold of Increase w.r.t. AmB (solubility) [11] | MIC A. thermomutatus [12] [µM] | MIC [17] [µM] | other results |
| --- | --- | --- | --- | --- | --- | --- | --- | --- | --- | --- | --- | --- | --- | --- | --- | --- | --- | --- | --- | --- | --- |
| C[C@@H]1[C@H](O)[C@@H](C)/C=C/C=C/C=C/C=C/C=C/C=C/C=C/[C@H](OC2O[C@H](C)[C@@H](O)[C@H](N)[C@@H]2O)C[C@@H]2O[C@](O)(C[C@@H](O)C[C@@H](O)[C@H](O)CC[C@@H](O)C[C@@H](O)CC(=O)O[C@H]1C)C[C@H](O)[C@H]2C(=O)O (some centres unmarked) [AmB, Amphotericin B] | 5.2 Log (CFU/mL) | 8.4 | 8.4 | 0.15 (≈ 0.139 µg/mL) | 0.375 (≈ 0.347 µg/mL) | 0.9 | 0.9 (≈ 0.832 µg/mL) |  |  |  |  |  |  |  |  |  |  |  |  |  | inhibition at 10 min, 10 µM ([1]; human liver microsomes, probe 5 in 1 substrate cocktail, read-out: P450 1A2 % Inhibition): 23.1%; inhibition at 10 min, 10 µM [3, 23]: 2.3%; inhibition at 10 min, 10 µM ([4]; human, human liver microsomes, probe 5 in 1 substrate cocktail): 4.1%; inhibition at 10 min, 10 µM [5, 23]: 8.1%; MIC ([6]; Coccidioides immitis, read-out: MIC Coccidioides immitis): 0.125 µM (≈ 0.116 µg/mL); MIC ([7]; Pichia kudriavzevii): 1 µM (≈ 0.924 µg/mL); MIC ([8]; Aspergillus tubingensis): 0.125 µM (≈ 0.116 µg/mL); MIC ([9]; Aspergillus fumigatus): 0.71 µM (≈ 0.656 µg/mL); MIC ([10]; Blastomyces dermatitidis): < 0.03 µM; solubility ([11]; 5% dextrose in water (D5W), saline or isotonic, thermodynamic from solid): 23 µM (≈ 21.3 µg/mL); MIC ([12]; Aspergillus thermomutatus, read-out: MIC A. thermomutatus): 0.6 µM (≈ 0.554 µg/mL); MIC ([17]; Cunninghamella): 2 µM (≈ 1.85 µg/mL); MIC ([18]; Lichtheimia corymbifera): 0.23 µM (≈ 0.213 µg/mL); MIC ([19]; Scedosporium boydii): > 16 µM; MIC ([20]; Candidozyma auris): 1.2 µM (≈ 1.11 µg/mL); MIC ([21]; Rhodotorula): 1 µM (≈ 0.924 µg/mL); MIC ([22]; Coccidioides posadasii, read-out: MIC Coccidioides posadasii): 0.06 µM (≈ 0.0554 µg/mL) |
| CC1C=CC=CC=CC=CC=CC=CC=CC(OC2OC(C)C(O)C(N)C2O)CC2OC(O)(CC(O)CC(O)C(O)CCC(O)CC(O)CC(=O)OC(C)C(C)C1O)CC(O)C2C(=O)NCCO (centres unmarked) [Compound BA] | 6.3 Log (CFU/mL) | >500 | >500 | 1.1 (≈ 1.06 µg/mL) | 2 (≈ 1.93 µg/mL) | 2.5 | 2.5 (≈ 2.42 µg/mL) | 0.0 | 2.74% and 2.77% | 18.7 | 15.7 | 0.29 (≈ 0.28 µg/mL) | 4 (≈ 3.87 µg/mL) | 0.92 (≈ 0.89 µg/mL) | 2 (≈ 1.93 µg/mL) | 0.6 (≈ 0.58 µg/mL) | >2600 | >113 | 1.6 (≈ 1.55 µg/mL) | 7.3 (≈ 7.06 µg/mL) | Efficacy in mouse model of invasive candidiasis ([2]; in vivo): Highly Efficacious; MIC [18]: 1 µM (≈ 0.967 µg/mL); MIC [19]: >16 µM; MIC [20]: 2.8 µM (≈ 2.71 µg/mL); MIC [21]: 3.3 µM (≈ 3.19 µg/mL); MIC Coccidioides posadasii [22]: 0.46 µM (≈ 0.445 µg/mL) |
| CC1C=CC=CC=CC=CC=CC=CC=CC(OC2OC(C)C(O)C(N)C2O)CC2OC(O)(CC(O)CC(O)C(O)CCC(O)CC(O)CC(=O)OC(C)C(C)C1O)CC(O)C2C(=O)NCCF (centres unmarked) [Compound BM] | 5.7 Log (CFU/mL) |  | >100 | 1 (≈ 0.969 µg/mL) | 1 (≈ 0.969 µg/mL) | 2.3 | 2.3 (≈ 2.23 µg/mL) | 7.8 | 2.1% | 89.1 | 12.4 | 0.23 (≈ 0.223 µg/mL) | 2 (≈ 1.94 µg/mL) | 0.92 (≈ 0.892 µg/mL) | 1.83 (≈ 1.77 µg/mL) | 0.5 (≈ 0.485 µg/mL) | 150 (≈ 145 µg/mL) | 6.5 | 1.7 (≈ 1.65 µg/mL) | 6 (≈ 5.81 µg/mL) | MIC [18]: 1 µM (≈ 0.969 µg/mL); MIC [19]: >16 µM; MIC [20]: 2.4 µM (≈ 2.33 µg/mL); MIC [21]: 3.3 µM (≈ 3.2 µg/mL); MIC Coccidioides posadasii [22]: 0.42 µM (≈ 0.407 µg/mL) |
